Laboratory results from patent publication US9593136B2 (priority 2011, dated 2017).
≈ marks a conversion by molar mass, not a printed value. Like-named read-outs stand apart in the source and are kept apart here.

Assays:
[1] = tested on: E. faecalis; assay: microbe, parasite or virus in culture; type: cell-based; settings: for MIC: Enterococcus faecalis, read-out: MIC E. faecalis
[2] = tested on: B. anthracis; assay: microbe, parasite or virus in culture; type: cell-based, Bacillus anthracis; settings: for MIC: Bacillus anthracis, read-out: MIC B. anthracis
[3] = tested on: E. coli k12; assay: microbe, parasite or virus in culture; type: cell-based; settings: for MIC: Escherichia coli, K12, read-out: MIC E. coli k12
[4] = tested on: S. aureus (MSSA); assay: microbe, parasite or virus in culture; type: cell-based; settings: for MIC: Staphylococcus aureus, MSSA, read-out: MIC S. aureus (MSSA)
[5] = tested on: MRSA NRS 70; assay: microbe, parasite or virus in culture; type: cell-based, S. aureus; settings: for MIC: Staphylococcus aureus
[6] = tested on: Acinetobacter; assay: microbe, parasite or virus in culture; type: cell-based; settings: for MIC: Acinetobacter, read-out: MIC Acinetobacter
[7] = tested on: Mtb H37Rv (ATCC 27294); assay: microbe, parasite or virus in culture; type: cell-based, Mycobacterium tuberculosis; settings: for MIC: Mycobacterium tuberculosis
[8] = tested on: E. coli tolc; assay: microbe, parasite or virus in culture; type: cell-based; settings: for MIC: Escherichia coli, read-out: MIC E. coli tolc
[9] = tested on: Klebsiella; assay: MIC against Klebsiella; type: cell-based; settings: Table 1
Procedure: (§1) The following compounds have been synthesized and tested for their activities against bacteria (Table 1) and their abilities to inhibit Dxr (Table 2). MIC is determined as described in Yendapally et al. (Journal of Medicinal Chemistry 2008, 51, 1487); and IC50 is determined as described in Henriksson et al. (Journal of Biological Chemistry 2007, 282, 19905).

[10] = tested on: P. aeruginosa; assay: MIC against P. aeruginosa; type: cell-based; settings: Pseudomonas aeruginosa; Table 1
Procedure: as §1

[11] = tested on: S. pneumonia; assay: MIC against S. pneumonia; type: cell-based; settings: Table 1
Procedure: as §1

[12] = target: M. tuberculosis Dxr (Mycobacterium tuberculosis, UniProt P9WNS1); assay: biochemical; settings: IC50 (μM)
[13] = read-out: Mtb MIC (ug/mL) (7H9)
[14] = read-out: Mtb MIC (ug/mL) (GAST)
[15] = read-out: MIC M. tuberculosis (H37Rv)

M. tuberculosis Dxr, sequence (P9WNS1 whole entry, looked up): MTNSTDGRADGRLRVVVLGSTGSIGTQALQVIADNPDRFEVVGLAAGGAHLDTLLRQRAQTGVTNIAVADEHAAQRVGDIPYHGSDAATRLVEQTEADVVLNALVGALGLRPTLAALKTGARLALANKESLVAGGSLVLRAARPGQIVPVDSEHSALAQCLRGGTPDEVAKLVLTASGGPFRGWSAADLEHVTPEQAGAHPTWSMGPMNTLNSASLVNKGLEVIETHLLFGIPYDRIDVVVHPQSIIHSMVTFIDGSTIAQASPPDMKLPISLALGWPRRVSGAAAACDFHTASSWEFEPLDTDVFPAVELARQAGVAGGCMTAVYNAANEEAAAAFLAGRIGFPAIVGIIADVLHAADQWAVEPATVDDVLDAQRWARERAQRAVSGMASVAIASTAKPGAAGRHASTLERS

SMILES | MIC [1] | MIC [9] | MIC [2] | MIC [3] | MIC [4] | MIC [10] | MIC [11] | MIC ([5]; read-out: MIC MRSA NRS 70) | MIC [6] | MIC ([7]; read-out: MIC H37 Rv) | MIC [8] | MIC ([7]; read-out: Mtb MIC (ug/mL)) | also measured
CC(=O)N(O)CCCP(=O)(OC(C)OC(=O)c1ccccc1)OC(C)OC(=O)c1ccccc1 (centres unmarked) [Compound 27] | – | – | – | – | – | – | – | – | – | – | – | – | MIC E. faecalis [1]: >200 mg/L; MIC B. anthracis [2]: 50 mg/L (≈ 101 µM); MIC E. coli k12 [3]: 50 mg/L (≈ 101 µM); MIC S. aureus (MSSA) [4]: >200 mg/L; MIC S. aureus (MRSA) [5]: >200 mg/L; MIC Acinetobacter [6]: 100 mg/L (≈ 203 µM); MIC M. tuberculosis (H37Rv) [7]: 100 to 200 mg/L; MIC E. coli tolc [8]: 50 mg/L (≈ 101 µM)
CCOP(=O)(CCCN(O)C(=O)c1ccccc1)OCC [ERJ 58] | > 200 mg/L | > 200 mg/L | > 200 mg/L | > 200 mg/L | > 200 mg/L | > 200 mg/L | > 200 mg/L | > 200 mg/L | > 200 mg/L | > 200 µg/mL | > 200 mg/L | – | MIC [7, 13]: > 500 µg/mL; MIC [7, 14]: 31.2 µg/mL (≈ 99.1 µM)
CCOP(=O)(CCCN(O)C(=O)CCc1ccccc1)OCC [ERJ 70] | > 200 mg/L | > 200 mg/L | > 200 mg/L | > 200 mg/L | > 200 mg/L | > 200 mg/L | > 200 mg/L | > 200 mg/L | > 200 mg/L | > 200 µg/mL | > 200 mg/L | – | MIC [7, 13]: 3.12 µg/mL (≈ 9.1 µM); MIC [7, 14]: > 200 µg/mL
CCOP(=O)(CCCN(O)C(=O)CCCc1ccccc1)OCC [ERJ 79] | > 200 mg/L | > 200 mg/L | > 200 mg/L | > 200 mg/L | 100 mg/L (≈ 280 µM) | > 200 mg/L | > 200 mg/L | 50 mg/L (≈ 140 µM) | > 200 mg/L | > 200 µg/mL | > 200 mg/L | – | MIC [7, 13]: 3.12 µg/mL (≈ 8.74 µM); MIC [7, 14]: > 200 µg/mL
CCOP(=O)(CCCN(O)C(=O)Cc1ccccc1)OCC [ERJ 91] | > 200 mg/L | > 200 mg/L | > 200 mg/L | > 200 mg/L | 100 mg/L (≈ 304 µM) | > 200 mg/L | > 200 mg/L | 50 mg/L (≈ 152 µM) | > 200 mg/L | > 200 µg/mL | > 200 mg/L | – | –
CCOP(=O)(CCCN(O)C(=O)c1cccc2ccccc12)OCC [ERJ 93] | 200 mg/L (≈ 547 µM) | > 200 mg/L | 200 mg/L (≈ 547 µM) | > 200 mg/L | 100 mg/L (≈ 274 µM) | > 200 mg/L | > 200 mg/L | 50 mg/L (≈ 137 µM) | > 200 mg/L | > 200 µg/mL | > 200 mg/L | – | –
CCOP(=O)(CCCN(O)C(=O)c1ccc2ccccc2c1)OCC [ERJ 96] | > 200 mg/L | > 200 mg/L | > 200 mg/L | > 200 mg/L | > 200 mg/L | > 200 mg/L | > 200 mg/L | > 200 mg/L | > 200 mg/L | > 200 µg/mL | > 200 mg/L | – | –
CCOP(=O)(CCCN(O)C(=O)c1ccc(-c2ccccc2)cc1)OCC [ERJ 104] | > 200 mg/L | > 200 mg/L | > 200 mg/L | > 200 mg/L | 100 mg/L (≈ 255 µM) | > 200 mg/L | > 200 mg/L | 100 mg/L (≈ 255 µM) | > 200 mg/L | > 200 µg/mL | 100 mg/L (≈ 255 µM) | – | –
CC(=O)N(O)CCCP(=O)(O)O [FR900098, reference compound] | > 200 mg/L | – | 50 mg/L (≈ 254 µM) | 200 mg/L (≈ 1010 µM) | > 200 mg/L | – | – | – | 50 mg/L (≈ 254 µM) | – | 12.5 mg/L (≈ 63.4 µM) | > 200 µg/mL | MIC ([5]; read-out: MIC S. aureus (MRSA)): 50 mg/L (≈ 254 µM); antitubercular activity (in words) [7]: inactive; MIC [7, 15]: > 500 µg/mL; IC50 [12]: 2 µM
O=CN(O)CCCP(=O)(O)O [Fosmidomycin, reference compound] | > 200 mg/L | – | 0.78 mg/L (≈ 4.26 µM) | 12.5 mg/L (≈ 68.3 µM) | > 200 mg/L | – | – | – | 100 mg/L (≈ 546 µM) | – | 6.25 mg/L (≈ 34.1 µM) | – | activity against B. anthracis (MIC) [2]: 0.78 lg/mL; MIC ([5]; read-out: MIC S. aureus (MRSA)): 200 mg/L (≈ 1090 µM); MIC ([7]; read-out: MIC 7H9 (μg/mL)): > 500 µg/mL; MIC ([7]; read-out: MIC GAST/Fe (μg/mL)): > 500 µg/mL; MIC [7, 15]: > 500 µg/mL
CCOP(=O)(CCCN(OCc1ccccc1)C(C)=O)OCC [GSJ 20 (Rotamer B)] | > 200 mg/L | > 200 mg/L | > 200 mg/L | > 200 mg/L | > 200 mg/L | > 200 mg/L | > 200 mg/L | > 200 mg/L | > 200 mg/L | > 200 µg/mL | > 200 mg/L | > 200 µg/mL | –
CCOP(=O)(CCCN(OCCc1ccccc1)C(C)=O)OCC [GSJ 25] | > 200 mg/L | > 200 mg/L | > 200 mg/L | > 200 mg/L | > 200 mg/L | > 200 mg/L | > 200 mg/L | > 200 mg/L | > 200 mg/L | > 200 µg/mL | > 200 mg/L | > 200 µg/mL | –
CCOP(=O)(CCCN(OCCCCc1ccccc1)C(C)=O)OCC [GSJ 26] | 200 mg/L (≈ 519 µM) | > 200 mg/L | > 200 mg/L | > 200 mg/L | 100 mg/L (≈ 259 µM) | > 200 mg/L | > 200 mg/L | 200 mg/L (≈ 519 µM) | > 200 mg/L | – | 200 mg/L (≈ 519 µM) | – | MIC H37 Rv [7]: Some act 200; Mtb MIC (ug/mL) [7]: SA 200
CCOP(=O)(CCCN(OCCCc1ccccc1)C(C)=O)OCC [GSJ 27] | > 200 mg/L | > 200 mg/L | > 200 mg/L | > 200 mg/L | > 200 mg/L | > 200 mg/L | > 200 mg/L | > 200 mg/L | > 200 mg/L | > 200 µg/mL | > 200 mg/L | > 200 µg/mL | –
CCOP(=O)(CCCN(OC(C)c1ccccc1)C(C)=O)OCC (centres unmarked) [GSJ 28] | > 200 mg/L | > 200 mg/L | > 200 mg/L | > 200 mg/L | 100 mg/L (≈ 280 µM) | > 200 mg/L | > 200 mg/L | 50 mg/L (≈ 140 µM) | > 200 mg/L | > 200 µg/mL | > 200 mg/L | > 200 µg/mL | –
CCOP(=O)(CCCN(OCCCc1ccc(OC)cc1)C(C)=O)OCC [GSJ 30] | > 200 mg/L | > 200 mg/L | > 200 mg/L | > 200 mg/L | > 200 mg/L | > 200 mg/L | > 200 mg/L | > 200 mg/L | > 200 mg/L | > 200 µg/mL | > 200 mg/L | > 200 µg/mL | –
CCOP(=O)(CCCN(OCCc1ccc(OC)cc1)C(C)=O)OCC [GSJ 31] | > 200 mg/L | > 200 mg/L | > 200 mg/L | > 200 mg/L | 200 mg/L (≈ 516 µM) | > 200 mg/L | > 200 mg/L | 50 mg/L (≈ 129 µM) | > 200 mg/L | > 200 µg/mL | > 200 mg/L | > 200 µg/mL | –
